Patent publication US20210015944A1, “Targeted Doxorubicin-Gold Nanocojugates for Tumor Therapy” (The Curators of the University of Missouri, priority 2017, published 2021)
≈ marks a conversion by molar mass, not a printed value. Like-named read-outs stand apart in the source and are kept apart here.

Tests used:
[1] = test system: MDA-MB-231 human breast cancer cells; experiment: In vitro cytotoxicity MTT assay, non-GRP expressing cells; format: cell-based; details: MDA-MB231 cells; for IC50: Homo sapiens, MDA-MB-231
Protocol: (§1) Cell culture: PC-3 human prostate and MDA-MB231 human breast carcinoma cells (ATCC, USA) were grown in RPMI 1640 medium (obtained from Gibco BRL, Grand Island, N.Y.) supplemented with 4.5 g/L D-glucose, 25 mM Hepes, 0.11 g/L sodium pyruvate, 1.5 g/L sodiumbicarbonate, 2 mM L-glutamine, 10% heat-inactivated fetal bovine serum (Atlanta Biologicals, USA) and 1% penicillin/streptomycin antibitiotic solution. Cells were cultured in a humidified atmosphere of 95% air and 5% CO2 at 37° C. (Thermo Scientific, USA), with the medium changed every other day. The cells were adherent in monolayers and when confluent were harvested from the cell culture flasks with trypsin—EDTA (Invitrogen) and seeded further apart.
In vitro Cytotoxicity Assay: In vitro cytotoxicity evaluation of NP1-DOX and NP2-DOX with respective controls such as NP1, NP2, free doxorubicin was performed on GRP expressing and non-expressing cancer cells, PC3 and MDA-MB-231, respectively. The cytotoxicity evaluation was performed in triplicates and the protocol was followed as described by the manufacturer. Briefly, 1×10^5 ml^−1 cells at the exponential growth phase were placed in a flat bottom 96-well polystyrene-coated plate and were incubated for 12 hour in a CO2 incubator at 5% CO2 and 37° C. A series of concentrations ranging from 0 to 10 ug/mL (0, 0.31, 0.625, 1.25, 2.5, 5.0 and 10 μg/mL) of NP1-Dox and NP2-Dox was prepared in the medium. Each concentration was added to the plate in quadruplets. After 24 hour incubation, 10 μL per well MTT (as received from the manufacturer, Promega Corporation, USA) was added and kept for 4 hours, and the formazan crystals so formed were dissolved in 100 μL detergent/solubilizing buffer. The plates were kept for 2 hours in dark at 25° C. to dissolve all crystals, and the intensity of developed color was measured by micro plate reader (Epoch, BioTek, USA) operating at 570 nm wavelength. Wells with complete medium, nanoparticles, and MTT, but without cells, were used as blanks. Untreated cells were considered 100% viable. […]

[2] = test system: PC3 human prostate cancer cells; experiment: In vitro cytotoxicity MTT assay, GRP expressing cells; format: cell-based; details: PC-3, 24 hour incubation, based on total weight of nanoconjugate, read-out: IC50, Nanoconjugate Conc.
Protocol: as §1
In vitro Cytotoxicity Assay: In vitro cytotoxicity evaluation of NP1-DOX and NP2-DOX with respective controls such as NP1, NP2, free doxorubicin was performed on GRP expressing and non-expressing cancer cells, PC3 and MDA-MB-231, respectively. The cytotoxicity evaluation was performed in triplicates and the protocol was followed as described by the manufacturer. […] The plates were kept for 2 hours in dark at 25° C. to dissolve all crystals, and the intensity of developed color was measured by micro plate reader (Epoch, BioTek, USA) operating at 570 nm wavelength. […]

COc1cccc2c1C(=O)c1c(O)c3c(c(O)c1C2=O)C[C@@](O)(C(=O)CO)C[C@@H]3O[C@H]1C[C@H](N)[C@H](O)[C@H](C)O1 [Doxorubicin]
IC50 ([1]; 24 hour incubation, MTT, based on total weight of nanoconjugate, read-out: IC50, Nanoconjugate Conc.): > 10 µg/mL | IC50 ([1]; in terms of doxorubicin loaded (0.53 μg/mg NP1-DOX, 0.3 μg/mg NP2-DOX), read-out: IC50, Doxorubicin Conc.): > 10 µg/mL | IC50, Nanoconjugate Conc. ([1]; 24 hour incubation, MTT, based on total weight of nanoconjugate): >10 µg/mL | IC50 [2]: 9.5 µg/mL (≈ 17.5 µM)
